Earlier results on 1 compound are cited in patent US6559178B1 (priority 2002, dated 2003).

This data set concerns cancer. As to conditions: Phase II testing.

In the case of `CC(=O)OC[C@]12CCC(C)=C[C@H]1O[C@@H]1[C@H](O)[C@@H](OC(C)=O)[C@@]2(C)[C@]12CO2` [Anguidine], the hematologic toxicity result is listed as “considerable hematologic toxicity” and the tumor response result is reported as “low tumor response”.
